Where a name gives a salt, the structure may show the parent alone.
Experiments:
Assay type in all cases: physicochemical
[1] = Stability study of Compound 1 (Form 1) drug substance at three storage conditions
Description: A stability study was conducted for Compound 1 (Form 1) at three storage conditions: (1) 5° C.±3° C., ambient relative humidity (RH), data collected at 0 and 1 month; (2) 25° C.±2° C., 60%±5% RH, data collected at 0, 1, 3, 6, 9, and 12 months; and (3) 40° C.±2° C., 75%±5% RH, data collected at 0, 1, 3, and 6 months.

[2] = 7-days stability studies of solid forms (storage, then XRPD and HPLC)
Description: Form 1 of Compound 1: Method. About 10 mg of Form 1 of Compound 1 was placed in a 2 ml vial and stored for 7 days under the following conditions: A) 40° C./75% RH (open vial); B) 25° C./60% RH (open vial); C) 80° C. (sealed vial). Solids were analyzed by XRPD and submitted for HPLC.
Form 2 of Compound 1: Method. Portions of Form 1 of Compound 1 (10 mg) were placed in 1.5 ml vials. One vial was stored for 7 days under each of the following conditions: A) 40° C./75% RH (open vial); B) 25° C./60% RH (open vial); C) 80° C. (sealed vial). Solids were analyzed by XRPD and submitted for HPLC.

[3] = Compression test at 100 and 250 MPa (XRPD after compression)
Description: Approximately 100 mg of Form 1 of Compound 1 was placed inside a FT-IR press, and a pressure of 100 MPa was applied and held for 60 seconds. The resulting material was analyzed by XRPD.
Approximately 100 mg of Form 1 of Compound 1 was placed inside the apparatus of the compression clamp. This apparatus was placed inside the compression clamp and a pressure of 250 MPa was applied and hold for 60 seconds. The resulting material was analyzed by XRPD.

[4] = Dynamic vapour sorption (DVS); conditions: for weight increase (DVS): relative humidity from about 0 to about 90%, about 25° C.
Description: Approximately, 10-20 mg of sample was placed into a mesh vapour sorption balance pan and loaded into a DVS Advantage dynamic vapour sorption balance by Surface Measurement Systems. The sample was subjected to a ramping profile from 40-90% relative humidity (RH) at 10% increments, maintaining the sample at each step until a stable weight had been achieved (dm/dt 0.004%, minimum step length 30 minutes, maximum step length 500 minutes) at 25° C. After completion of the sorption cycle, the sample was dried using the same procedure to 0% RH and then a second sorption cycle back to 40% RH. Two cycles were performed. The weight change during the sorption/desorption cycles were plotted, allowing for the hygroscopic nature of the sample to be determined. XRPD analysis was then carried out on any solid retained.

[5] = Stability studies of Form A of a besylate salt (XRPD); conditions: 40° C. and 75% RH for 7 days
Excerpt: No changes in form were observed by XRPD.

CCn1ncc2c1-c1cnc(N)c(c1)O[C@H](C)c1cc(F)ccc1-c1nn(C)nc1C2 [Compound 1]
chemical and physical stability (description, assay, related substances, water content, polymorphic form, chiral purity) ([1]; 25° C.±2° C./60%±5% RH, 12 months): No meaningful changes
chemical and physical stability (description, assay, related substances, water content, polymorphic form, chiral purity) ([1]; 40° C.±2° C./75%±5% RH, 6 months): No meaningful changes
compliance with acceptance criteria (purity at least 97%, individual impurities ≤0.2%, total ≤2.0%, enantiomeric purity at least 99.5%, Form 1) ([1]; all time points): complied with the acceptance criteria

CCn1ncc2c1-c1cnc(N)c(c1)O[C@H](C)c1cc(F)ccc1-c1nn(C)nc1C2 [Form 1 of Compound 1]
% Purity by HPLC ([2]; 25° C./60% RH (open vial), 7 days): 99.58%
% Purity by HPLC ([2]; 40° C./75% RH (open vial), 7 days): 99.66%
% Purity by HPLC ([2]; 80° C. (sealed vial), 7 days): 99.58%
stability of the solid form ([2]; all tested conditions (40° C./75% RH, 25° C./60% RH, 80° C.), 7 days): stable under all tested conditions
purity by HPLC after storage ([2]; all three samples: 40° C./75% RH, 25° C./60% RH, 80° C., one week): > 99.5%
stability to compression (crystalline form by XRPD) ([3]; 100 MPa for 60 seconds): stable
stability to compression (crystalline form by XRPD) ([3]; 250 MPa for 60 seconds): stable
hygroscopicity [4]: non-hygroscopic
weight increase (DVS) [4]: about 0.25%

CCn1ncc2c1-c1cnc(N)c(c1)O[C@H](C)c1cc(F)ccc1-c1nn(C)nc1C2 [Form 2]
solid form stability by XRPD ([2]; 25° C./60% RH, 7 days): stable
solid form stability by XRPD ([2]; 40° C./75% RH, 7 days): stable
solid form by XRPD after storage ([2]; 80° C. (sealed vial), 7 days): correspond to that for Form 7

CCn1ncc2c1-c1cnc(N)c(c1)O[C@H](C)c1cc(F)ccc1-c1nn(C)nc1C2 [Form 7]
weight increase (DVS) [4]: about 0.27%

CCn1ncc2c1-c1cnc(N)c(c1)O[C@H](C)c1cc(F)ccc1-c1nn(C)nc1C2 [Form A of a besylate salt of Compound 1]
hygroscopicity [4]: hygroscopic
weight increase (DVS) [4]: about 2%
weight increase (DVS) ([4]; listed as Form A of a Besylate Salt of Compound 1): 2%
physical stability (form by XRPD) [5]: physically stable

Source: patent publication US12630560B2, “Solid forms, pharmaceutical compositions and preparation of heteroaromatic macrocyclic ether compounds” (Nuvalent, Inc., priority 2021, dated 2026)
